Test [1] concerns the target T1, DC-SIGN (ECD) (Homo sapiens, UniProt Q9NNX6).
T1 construct: DC-SIGN full extracellular domain (ECD, residues 70-404, Thermo Fischer Scientific); made in house
T1 sequence (Q9NNX6 70-404): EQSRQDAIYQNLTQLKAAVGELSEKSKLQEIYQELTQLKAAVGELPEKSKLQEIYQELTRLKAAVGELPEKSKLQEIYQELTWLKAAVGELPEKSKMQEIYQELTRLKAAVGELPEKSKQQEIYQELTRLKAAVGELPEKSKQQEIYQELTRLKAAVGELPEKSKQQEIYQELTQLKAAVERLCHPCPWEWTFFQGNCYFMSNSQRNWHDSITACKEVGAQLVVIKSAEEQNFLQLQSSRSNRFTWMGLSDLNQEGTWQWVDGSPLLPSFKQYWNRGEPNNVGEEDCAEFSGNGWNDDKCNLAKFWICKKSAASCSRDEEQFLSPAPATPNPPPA
Put plainly: 19F-R2 filtered NMR KD determination of the spy molecule. Format: binding. The settings on record: spy molecule with DC-SIGN; fast-exchange regime, τCPMG 1 ms. The procedure:
(§1) For KD estimation of 6-deoxy-6-F-Man (the spy-molecule), the free evolution delay was set to an optimized value τ=1 ms , after using relaxation dispersion experiments to assure a negligible chemical exchange contribution to R2,obs (Figure S1a). The KI of 1, 1b-d, 2, and 3 with DC-SIGN (ECD) was determined by titration experiments in a competitive fashion. Increasing amounts of the competitor molecules (compounds 1, 1b-d, 2, and 3) were added to a solution mixture of the spy molecule and the protein in each case, calculating the R2,obs of the spy molecule at each competitor concentration while the ratio [Spy-molecule]/[Protein] is fixed (40:1) (Figure S1c).
(§2) 19F-R2 filtered experiments
The KD of compounds 1, 1b-d, 2 and 3 was estimated applying a 19F-R2 filtered approach. […] Relaxation rates R2 were determined employing a CPMG pulse sequence, by fitting the observed 19F signal intensity to the exponential decay curve: […]
(§3) [ܲ]் + [ܮ]் + ܭ஽ − ඥ([ܲ]் + [ܮ]் + ܭ஽)ଶ − 4[ܲ]்[ܮ]் (3) where [ܲ]் and [ܮ]் are the total protein and ligand concentrarion respectively, [ܴ]ଶ,௙ and [ܴ]ଶ,௕ are the relaxation rates in the free and bound states, ݌௕ is the fraction of bound ligand and ܭ஽ the dissociation constant of the protein-ligand complex. [ܴ]ଶ,௙ of 6-F-ManαOMe was measured in absence of the lectin, and Equation 2 was used to estimate ܭ஽and [ܴ]ଶ,௕ for the […]

For test [2], the target named is T1, DC-SIGN (ECD). Put plainly: competitive 19F-R2 filtered NMR experiments (spy molecule 6-F-ManαOMe). Format: binding. The settings on record: non-linear least squares fitting; [6-F-ManαOMe] 400 µM, [DC-SIGN (CRDs)] 10 µM; 298 K, pH 8.0.
Text: In order to gain insights into the effects that the different fluorination patterns may have in the binding event, the affinities of 1b, the natural analogue of 1, as well as 1c and 1d, two partially fluorinated trisaccharides, were also estimated. (Table 2, Figure S1).
as §1, §2
The KD of compounds 1, 1b-d, 2 and 3 was estimated applying a 19F-R2 filtered approach. 6-F-ManαOMe, which weakly binds to DC-SIGN, was selected as the spy molecule. Relaxation rates R2 were determined employing a CPMG pulse sequence, by fitting the observed 19F signal intensity to the exponential decay curve:
ܫ(ݐ) = ܫ଴݁ି௧ோమ = ܫ଴݁ି௡ଶఛோమ (1) where ܫ(ݐ) refers to intensity at time ݐ, ܫ଴ is intensity at ݐ = 0, and ܴଶ is the transversal relaxation rate (ܴଶ = 1/ܶଶ).
In the limit of fast-exchange where the exchange contribution to the observed transversal relaxation rate ܴଶ,௢௕௦ is insignificant (Figure S1, a)), the following equations apply:
ܴଶ,௢௕௦ = ܴଶ,௙ + ൫ܴଶ,௕ − ܴଶ,௙൯݌௕ (2)
as §3
Then, ܭூ of compounds 1, 1b-d, 2 and 3 was measured in a competitive manner. ܴଶ,௢௕௦ of 6-F-ManαOMe (spy molecule) in solution with DC-SIGN ECD was monitored at 5 different competitor concentrations ([ܫ]) in each case with a fixed [ܲ]்/[ܮ]் ratio (Figure S1, c)), to derive ܭூ by fitting to Equation 2 with ݌௕ as defined in Equations (4) and (5) (Table 2):
݌௕ = 3ܭ + 2 cos൫ߠൗ ൯ √ܽଶ − 3ܾ − ܽ (4)
ߠ = cos ൬ ଶඥ(௔మିଷ௕)య ൰, ܽ = ܭ஽ + ܭூ + [ܮ]் + [ܫ]் − [ܲ]், ܾ = ([ܫ]் − [ܲ]்)ܭ஽ + ([ܮ]் − [ܲ]்)ܭ஽ + ܭூܭ஽, ܿ = −ܭூܭ஽[ܲ]்
Figure S1. 19F-R2 filtered experiments. a) Relaxation dispersion experiment for 6-F-ManαOMe (the spy molecule). R2,obs of the 19F nucleus is measured for different values of ωCPMG. Ligand and protein sample concentrations were: [6-F-ManαOMe] = 400 µM, [DC-SIGN (CRDs)] = 10 µM (counting concentration of CRDs, i.e, 4 CRDs per DC-SIGN ECD tetramer). For ωCPMG > 1000 s-1, there is virtually negligible exchange contribution to R2. Therefore, all the subsequent R2 filtered experiments were carried out with τCPMG = 1/ωCPMG = 1 ms. b) KD determination of 6-F-ManαOMe with DC-SIGN. R2,obs was measured for increasing amounts of [6-F-ManαOMe]/[DC-SIGN (CRDs)] (blue dots). KD and R2,b were obtained from fitting to Equation 2, which is valid in the fast-exchange regime (Rex = 0) [39a]. The predicted values at each [6-F-ManαOMe]/[DC-SIGN (CRDs)] are shown as red stars for comparison c) Titration curves showing the variation in 19F-R2,obs of the spy molecule 6-F-ManαOMe, when increasing amounts of the competitors (I) 1, 1b-d, 2 and 3 are added to a mixture [6-F-ManαOMe] = 400 µM, [DC-SIGN (CRDs)] = 10 µM. […]

Regarding `CO[C@H]1O[C@H](CF)[C@@H](O)[C@H](O)[C@@H]1O` [6-F-ManαOMe], in test [1], the Kd is 1.3 mM. As for `CO[C@H]1O[C@H](CO[C@H]2O[C@H](CO)[C@@H](O)[C@H](O)[C@@H]2O)[C@@H](O)[C@H](O[C@H]2O[C@H](CO)[C@@H](O)[C@H](O)[C@@H]2O)[C@@H]1O` [1b, reference compound], in test [2], the affinity corresponds to a Ki of 1.1 mM. The same measure, in the same setting: for `CO[C@H]1O[C@H](CO[C@H]2O[C@H](CO)[C@@H](O)[C@H](O)[C@@H]2O)[C@@H](O)[C@H](O[C@H]2O[C@H](CO)[C@@H](O)[C@H](O)[C@@H]2O)[C@@H]1F` [1c] the value was 1 mM; for `CO[C@H]1O[C@H](CO[C@H]2O[C@H](CO)[C@@H](O)[C@H](O)[C@@H]2O)[C@@H](O)[C@H](O[C@H]2O[C@H](CO)[C@@H](O)[C@H](O)[C@@H]2F)[C@@H]1O` [1d], 1.1 mM.

The values are drawn from PMC7463913, “The Interaction of Fluorinated Glycomimetics with DC-SIGN: Multiple Binding Modes Disentangled by the Combination of NMR Methods and MD Simulations” (Pharmaceuticals, 2020).
